This is an account of results in patent publication US20260053834A1, “COVALENT MODIFIERS OF AKT1 AND USES THEREOF” (Terremoto Biosciences, Inc., priority 2023, published 2026).

One assay addresses T1, AKT2 (Homo sapiens, UniProt P31751).
T1 construct: expressed in transfected cells; host or cells: HEK293
Kind of assay: Live cell target engagement by NanoBRET competitive probe displacement, AKT2. The class given is binding. The conditions noted are these: transfected HEK293 cells, 2 h at 37° C., read-out: AKT2 IC50: GeoMean IC50. How it is done:
(§1) Determining live cell AKT1 E17K, AKT1 WT, and AKT2 target engagement by NanoBRET competitive probe displacement. Live cell target engagement assays were performed as described (Vasta, J. D. et al. Cell Chem Biol 2018, 25(11), 206-214). Briefly, HEK293 cells were transfected with plasmids encoding kinase-NanoLuciferase fusion proteins overnight. Cells were then treated with serial dilutions of compound and an ˜EC50 concentration of fluorescently-tagged ATP-competitive tracer (Promega). After incubation for 2 h at 37° C., luciferase substrate and extracellular luciferase inhibitor were added to all wells, and luminescent intensity at 460 nm and 600 nm were measured on a multimode plate-reader. The ratio of E600/E460 was calculated to give the tracer engagement signal (BRET). IC50 values were calculated by fitting BRET values to a log(inhibitor) vs. response Hill equation.
(In general: Bioluminescence resonance energy transfer reports proximity on the nanometre scale.)

Assay [1] deals with LAPC4 prostate cancer cells, which express the AKT1 E17K allele. Briefly: Antiproliferative effects in LAPC4 cells (CellTiter Glo, 72 h). The assay is classed as cell-based. The conditions noted are these: read-out: LAPC4 proliferation IC50: GeoMean IC50. How it is done:
Antiproliferative effects in LAPC4 cells. LAPC4 prostate cancer cells (Klein, K. A. et al. Nat Med 1997, 3, 402-408), which express the AKT1 E17K allele, were grown in IMDM media (Hyclone) supplemented with 12% FBS+1% P/S. To assess compound effects on growth, 1,000 cells/well were seeded in 384 well assay plates, incubated with compound dilutions dissolved in DMSO. After 72 h, intracellular ATP content was assessed with CellTiter Glo reagent (Promega) according to the manufacturer's instructions. IC50 values were calculated by fitting luminescence values to a log(inhibitor) vs. response Hill equation.
Background: ATP-based viability assays read luminescence as a measure of living cells.

For another assay, the target named is T2, AKT1 WT (Homo sapiens, UniProt P31749).
T2 construct: expressed in transfected cells; host or cells: HEK293
T2 sequence (P31749 whole entry): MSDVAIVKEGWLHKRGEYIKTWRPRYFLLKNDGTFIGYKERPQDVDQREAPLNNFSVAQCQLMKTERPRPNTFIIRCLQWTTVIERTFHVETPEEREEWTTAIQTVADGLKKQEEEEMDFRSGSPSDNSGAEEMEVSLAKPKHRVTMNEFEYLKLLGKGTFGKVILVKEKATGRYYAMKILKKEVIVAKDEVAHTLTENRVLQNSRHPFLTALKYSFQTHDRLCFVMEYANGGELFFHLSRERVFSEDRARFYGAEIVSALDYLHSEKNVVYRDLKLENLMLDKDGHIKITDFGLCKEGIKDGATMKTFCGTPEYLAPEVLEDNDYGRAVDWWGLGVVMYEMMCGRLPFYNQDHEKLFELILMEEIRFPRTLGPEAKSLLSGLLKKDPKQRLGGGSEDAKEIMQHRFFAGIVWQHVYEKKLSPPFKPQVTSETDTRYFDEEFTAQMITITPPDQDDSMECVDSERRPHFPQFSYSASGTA
Kind of assay: Live cell target engagement by NanoBRET competitive probe displacement, AKT1 WT. The class given is binding. The conditions noted are these: transfected HEK293 cells, 2 h at 37° C., read-out: AKT1 WT IC50: GeoMean IC50. Here is the method:
as §1

The target in a further assay is T3, AKT1 E17K (Homo sapiens, UniProt P31749, E17K).
T3 construct: expressed in transfected cells; host or cells: HEK293
T3 sequence (P31749 whole entry E17K): as the sequence (P31749 whole entry) above, with E17K counted along it
Briefly: Live cell target engagement by NanoBRET competitive probe displacement, AKT1 E17K. The assay is classed as binding. The following applies: transfected HEK293 cells, 2 h at 37° C., read-out: AKT1 E17K IC50: GeoMean IC50. How it is done: as §1

Like-named read-outs stand apart in the source and are kept apart here.

T1 sequence (P31751 whole entry): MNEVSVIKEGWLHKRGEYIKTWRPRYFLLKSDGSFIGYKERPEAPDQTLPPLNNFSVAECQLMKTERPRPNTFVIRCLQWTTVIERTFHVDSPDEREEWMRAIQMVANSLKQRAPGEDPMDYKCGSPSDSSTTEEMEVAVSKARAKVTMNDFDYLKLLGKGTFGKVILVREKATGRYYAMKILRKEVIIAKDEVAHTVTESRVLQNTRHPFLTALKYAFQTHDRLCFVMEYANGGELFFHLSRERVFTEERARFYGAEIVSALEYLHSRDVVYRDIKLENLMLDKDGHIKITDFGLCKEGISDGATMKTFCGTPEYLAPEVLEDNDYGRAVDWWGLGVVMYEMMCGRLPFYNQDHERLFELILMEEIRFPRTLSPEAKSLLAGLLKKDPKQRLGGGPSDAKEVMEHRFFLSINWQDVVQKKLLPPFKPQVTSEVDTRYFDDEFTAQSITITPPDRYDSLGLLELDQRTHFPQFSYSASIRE

Take `Nc1ncccc1-c1nc2ccc(-n3cccn3)nc2n1-c1ccc2c(c1)CC(F)[C@@H]2NC(=O)c1cc(C=O)c(O)cc1F` (single isomer, unassigned) [Example 259, N-((1R,2S*)-5-(2-(2-aminopyridin-3-yl)-5-(1H-pyrazol-1-yl)-3H-imidazo[4,5-b]pyridin-3-yl)-2-fluoro-2,3-dihydro-1H-inden-1-yl)-2-fluoro-5-formyl-4-hydroxybenzamide]: the IC50 on AKT2 was 0.1 to 2 µM; in assay [1] it was 0.01 to 0.1 µM; at AKT1 WT, 0.01 to 0.1 µM; at AKT1 E17K it was 0.01 to 0.1 µM.

For `Nc1ncccc1-c1nc2ccc(-c3ccccc3)nc2n1-c1ccc2c(c1)CC[C@@H]2NC(=O)c1ccc(O)c(C=O)c1` [Example 5, (S)—N-(5-(2-(2-aminopyridin-3-yl)-5-phenyl-3H-imidazo[4,5-b]pyridin-3-yl)-2,3-dihydro-1H-inden-1-yl)-3-formyl-4-hydroxybenzamide], the IC50 at AKT2 was 0.01 to 0.1 µM; in assay [1] (Homo sapiens, LAPC4, 72 h), 0.01 to 0.1 µM; on AKT1 WT it was 0.01 to 0.1 µM; on AKT1 E17K it was 0.01 to 0.1 µM.

Regarding `Nc1ncccc1-c1nc2ccc(-c3ccccc3)nc2n1-c1ccc2c(c1)CC[C@@H]2NC(=O)c1cc(F)c(O)c(C=O)c1` [Example 8, N-[(1S)-5-[2-(2-aminopyridin-3-yl)-5-phenylimidazo[4,5-b]pyridin-3-yl]-2,3-dihydro-1H-inden-1-yl]-3-fluoro-5-formyl-4-hydroxybenzamide], the IC50 at AKT2 lay within 0.1 to 2 µM; in assay [1] (Homo sapiens, LAPC4, 72 h), 0.01 to 0.1 µM; at AKT1 WT, 0.01 to 0.1 µM; at AKT1 E17K it was 0.01 to 0.1 µM.

For `Nc1ncccc1-c1nc2ccc(-c3ccccc3)nc2n1-c1ccc2c(c1)CCC2C(=O)NCc1ccc(C=O)c(O)c1` (centres unmarked) [Example 10, 5-(2-(2-aminopyridin-3-yl)-5-phenyl-3H-imidazo[4,5-b]pyridin-3-yl)-N-(4-formyl-3-hydroxybenzyl)-2,3-dihydro-1H-indene-1-carboxamide], the IC50 is 0.1 to 2 µM at AKT2; 0.01 to 0.1 µM in assay [1] (Homo sapiens, LAPC4, 72 h); 0.01 to 0.1 µM at AKT1 WT; less than 0.01 µM on AKT1 E17K.

As for `Nc1ncccc1-c1nc2ccc(-c3ccccc3)nc2n1-c1ccc2c(c1)CC[C@@H]2NC(=O)c1cc(Cl)c(O)c(C=O)c1` [Example 11, N-[(1S)-5-[2-(2-aminopyridin-3-yl)-5-phenylimidazo[4,5-b]pyridin-3-yl]-2,3-dihydro-1H-inden-1-yl]-3-chloro-5-formyl-4-hydroxybenzamide], the IC50 is 0.1 to 2 µM at AKT2; 0.1 to 2 µM in assay [1] (Homo sapiens, LAPC4, 72 h); 0.01 to 0.1 µM on AKT1 WT; 0.01 to 0.1 µM on AKT1 E17K.

Regarding `Nc1ncccc1-c1nc2ccc(-c3ccccc3)nc2n1-c1ccc2c(c1)CC[C@@H]2NC(=O)C1(c2cnc(C=O)c(O)c2)CC1` [Example 12, N-[(1S)-5-[2-(2-aminopyridin-3-yl)-5-phenylimidazo[4,5-b]pyridin-3-yl]-2,3-dihydro-1H-inden-1-yl]-1-(6-formyl-5-hydroxypyridin-3-yl)cyclopropane-1-carboxamide], the IC50 on AKT2 was 0.1 to 2 µM; in assay [1] (Homo sapiens, LAPC4, 72 h) it was no less than 2 µM; on AKT1 WT, 0.1 to 2 µM; at AKT1 E17K, 0.1 to 2 µM.

For `Cc1ccc2nc(-c3cccnc3N)n(-c3ccc4c(c3)CC[C@@H]4NC(=O)c3ccc(O)c(C=O)c3)c2n1` [Example 13, N-[(1S)-5-[2-(2-aminopyridin-3-yl)-5-methylimidazo[4,5-b]pyridin-3-yl]-2,3-dihydro-1H-inden-1-yl]-3-formyl-4-hydroxybenzamide], the IC50 on AKT2 was no less than 2 µM; in assay [1] (Homo sapiens, LAPC4, 72 h), 0.1 to 2 µM; on AKT1 WT, 0.1 to 2 µM; at AKT1 E17K it was 0.01 to 0.1 µM.

With `CC(=O)Nc1ccc(C(=O)N[C@H]2CCc3cc(-n4c(-c5cccnc5N)nc5ccc(-c6ccccc6)nc54)ccc32)cc1C=O` [Example 14, N-[(1S)-5-[2-(2-aminopyridin-3-yl)-5-phenylimidazo[4,5-b]pyridin-3-yl]-2,3-dihydro-1H-inden-1-yl]-4-acetamido-3-formylbenzamide], the IC50 was 0.01 to 0.1 µM at AKT2; less than 0.01 µM in assay [1] (Homo sapiens, LAPC4, 72 h); less than 0.01 µM at AKT1 WT; less than 0.01 µM on AKT1 E17K.

In the case of `Nc1ncccc1-c1nc2cccnc2n1-c1ccc2c(c1)CC[C@@H]2NC(=O)c1ccc(O)c(C=O)c1` [Example 15, N-[(1S)-5-[2-(2-aminopyridin-3-yl)imidazo[4,5-b]pyridin-3-yl]-2,3-dihydro-1H-inden-1-yl]-3-formyl-4-hydroxybenzamide], the IC50 on AKT2 was no less than 2 µM; in assay [1] (Homo sapiens, LAPC4, 72 h), 0.1 to 2 µM; at AKT1 WT it was 0.1 to 2 µM; on AKT1 E17K, 0.01 to 0.1 µM.

Take `Nc1ncccc1-c1nc2ccc(-c3ccccc3)nc2n1-c1ccc2c(c1)CC[C@@H]2NC(=O)c1cc(C=O)c(O)cc1F` [Example 16, N-[(1S)-5-[2-(2-aminopyridin-3-yl)-5-phenylimidazo[4,5-b]pyridin-3-yl]-2,3-dihydro-1H-inden-1-yl]-2-fluoro-5-formyl-4-hydroxybenzamide]: the IC50 is 0.01 to 0.1 µM at AKT2; 0.1 to 2 µM in assay [1] (Homo sapiens, LAPC4, 72 h); 0.01 to 0.1 µM at AKT1 WT; 0.01 to 0.1 µM at AKT1 E17K.

`COc1cc(O)c(C=O)cc1C(=O)N[C@H]1CCc2cc(-n3c(-c4cccnc4N)nc4ccc(-c5ccccc5)nc43)ccc21` [Example 17, N-[(1S)-5-[2-(2-aminopyridin-3-yl)-5-phenylimidazo[4,5-b]pyridin-3-yl]-2,3-dihydro-1H-inden-1-yl]-5-formyl-4-hydroxy-2-methoxybenzamide]: the IC50 lay within 0.1 to 2 µM on AKT2; 0.1 to 2 µM in assay [1] (Homo sapiens, LAPC4, 72 h); 0.1 to 2 µM on AKT1 WT; 0.1 to 2 µM at AKT1 E17K.

For the compound `Nc1ncccc1-c1nc2ccc(-c3cccnn3)nc2n1-c1ccc2c(c1)CC[C@@H]2NC(=O)c1ccc(O)c(C=O)c1` [Example 18, N-[(1S)-5-[2-(2-aminopyridin-3-yl)-5-(pyridazin-3-yl)imidazo[4,5-b]pyridin-3-yl]-2,3-dihydro-1H-inden-1-yl]-3-formyl-4-hydroxybenzamide], the IC50 at AKT2 was 0.1 to 2 µM; in assay [1] (Homo sapiens, LAPC4, 72 h), 0.1 to 2 µM; at AKT1 WT, 0.01 to 0.1 µM; at AKT1 E17K it was 0.01 to 0.1 µM.

`CN1CCN(c2cccc(-c3ccc4nc(-c5cccnc5N)n(-c5ccc6c(c5)CC[C@@H]6NC(=O)c5ccc(O)c(C=O)c5)c4n3)c2)CC1` [Example 19, (S)—N-(5-(2-(2-aminopyridin-3-yl)-5-(3-(4-methylpiperazin-1-yl)phenyl)-3H-imidazo[4,5-b]pyridin-3-yl)-2,3-dihydro-1H-inden-1-yl)-3-formyl-4-hydroxybenzamide]: the IC50 at AKT2 was less than 0.01 µM; in assay [1] (Homo sapiens, LAPC4, 72 h) it was 0.01 to 0.1 µM; on AKT1 WT, less than 0.01 µM; at AKT1 E17K, less than 0.01 µM.

Consider `Nc1ncccc1-c1nc2ccc(-c3ccc(F)cc3)nc2n1-c1ccc2c(c1)CC[C@@H]2NC(=O)c1ccc(O)c(C=O)c1` [Example 20, (S)—N-(5-(2-(2-aminopyridin-3-yl)-5-(4-fluorophenyl)-3H-imidazo[4,5-b]pyridin-3-yl)-2,3-dihydro-1H-inden-1-yl)-3-formyl-4-hydroxybenzamide], for which the IC50 on AKT2 fell in the range of 0.1 to 2 µM; in assay [1] (Homo sapiens, LAPC4, 72 h), 0.01 to 0.1 µM; at AKT1 WT, 0.01 to 0.1 µM; at AKT1 E17K, 0.01 to 0.1 µM.

For the compound `Nc1ncccc1-c1nc2ccc(-c3ccccc3F)nc2n1-c1ccc2c(c1)CC[C@@H]2NC(=O)c1ccc(O)c(C=O)c1` [Example 21, N-[(1S)-5-[2-(2-aminopyridin-3-yl)-5-(2-fluorophenyl)imidazo[4,5-b]pyridin-3-yl]-2,3-dihydro-1H-inden-1-yl]-3-formyl-4-hydroxybenzamide], the IC50 fell in the range of 0.01 to 0.1 µM at AKT2; 0.01 to 0.1 µM in assay [1] (Homo sapiens, LAPC4, 72 h); 0.01 to 0.1 µM on AKT1 WT; 0.01 to 0.1 µM at AKT1 E17K.

Take `Nc1ncccc1-c1nc2ccc(-c3ccccc3)nc2n1-c1ccc2c(c1)CC[C@@H]2NC(=O)c1cc(C=O)c(O)c(F)c1F` [Example 22, N-[(1S)-5-[2-(2-aminopyridin-3-yl)-5-phenylimidazo[4,5-b]pyridin-3-yl]-2,3-dihydro-1H-inden-1-yl]-2,3-difluoro-5-formyl-4-hydroxybenzamide]: the IC50 on AKT2 lay within 0.01 to 0.1 µM; in assay [1] (Homo sapiens, LAPC4, 72 h), 0.01 to 0.1 µM; at AKT1 WT it was 0.01 to 0.1 µM; on AKT1 E17K, 0.01 to 0.1 µM.

As for `Nc1ncccc1-c1nc2ccc(-c3cccnc3)nc2n1-c1ccc2c(c1)CC[C@@H]2NC(=O)c1ccc(O)c(C=O)c1` [Example 23, N-[(1S)-5-[2-(2-aminopyridin-3-yl)-5-(pyridin-3-yl)imidazo[4,5-b]pyridin-3-yl]-2,3-dihydro-1H-inden-1-yl]-3-formyl-4-hydroxybenzamide], the IC50 at AKT2 lay in the range of 0.1 to 2 µM; in assay [1] (Homo sapiens, LAPC4, 72 h), 0.01 to 0.1 µM; on AKT1 WT, 0.01 to 0.1 µM; at AKT1 E17K it was 0.01 to 0.1 µM.
